For 23 molecules, EC50 and Ki results are on record in patent publication US20240254093A1, “GPR35 Agonist Compounds” (Heptares Therapeutics Limited, priority 2021, published 2024).

The target in experiment [1] is GPR35 (Homo sapiens (Human), UniProt Q9HC97). Description: Label-free DMR functional assay in HT-29 cells. The class given is cell-based. The note with it: HT-29 cell line endogenously expressing human GPR35; DMR normalised to Lodoxamide. On the procedure: HT-29 cells (ATCC HTB-38) kept in continuous culture in McCoys (Thermo 16600082) supplemented with 10% FBS. Day prior to assay, cells harvested with TrypLE (Gibco12604-013), and plated at 20 k/well in culture media in a total volume of 50 ul in Corning EPIC 384 well plates (5040) overnight 37° C. 5% CO2. On the day of assay, cell media was removed and replaced with assay buffer (HBSS+20 mM HEPES pH7.4) and reincubated for 1 h. Compounds were prepared in 100% DMSO in ECHO LDV 384 source plates. Cell plates were read on an EPIC plate reader at room temperature for 15 mins, read paused, and cell plate added to LabCyte ECHO 550 for addition of 50 nl per well compound by acoustic transfer. Plates were immediately placed back into the EPIC reader, read unpaused and Dynamic Mass Redistribution measured for 60 minutes. Raw data was analysed by EPIC Analyser software and max peak taken per concentration to enable EC50 determination. All raw DMR data was normalised to Lodoxamide and buffer corrected.
Sequence of GPR35 (Q9HC97 whole entry): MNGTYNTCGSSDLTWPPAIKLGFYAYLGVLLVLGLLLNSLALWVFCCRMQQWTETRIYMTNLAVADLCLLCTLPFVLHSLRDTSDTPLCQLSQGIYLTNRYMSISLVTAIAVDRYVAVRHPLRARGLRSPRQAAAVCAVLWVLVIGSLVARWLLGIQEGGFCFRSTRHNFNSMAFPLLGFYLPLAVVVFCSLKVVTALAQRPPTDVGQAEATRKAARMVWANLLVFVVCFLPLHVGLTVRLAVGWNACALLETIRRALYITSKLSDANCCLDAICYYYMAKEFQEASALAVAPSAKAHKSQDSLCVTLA
(§1) • Ki values derived from concentration response analysis in HEKf cell membranes overexpressing GPR35a isoform. EC50 values derived from concentration response analysis in HT-29 cell line endogenously expressing human GPR35.

Experiment [2] addresses Human GPR35a isoform (Homo sapiens (Human), UniProt Q9HC97). Description: Human GPR35a isoform binding (radioligand, HEK293f membranes). As to conditions: HEKf cell membranes overexpressing GPR35a isoform; read-out: Human GPR35 Ki. On the procedure:
Overexpression of Human GPR35a Baculovirus in HEK293f cells at a cell density of 2.5×10^6 cells/mL and a multiplicity of infection of 2.5 over 24 h in Pro293 (Lonza)+5% FBS, 1% Glutamax and 0.4% Pen/Strep. Cells harvested and centrifuged at 2500 RPM for 10 mins at 4° C. The supernatant was then poured off and the pellet stored at −80° C. The pellet was defrosted and re-suspended in 15 mL of homogenising buffer (20 mM HEPES, 10 mM EDTA, pH 7.4). Then homogenised in mechanical homogeniser (VMR) for 10 seconds. The membrane was centrifuged in centrifuge tubes at 40,000 g for 15 mins at 4° C. The supernatant was poured away and re-suspended in 15 mL of homogenising buffer. Homogenised for 20 seconds. The membrane was centrifuged at 40,000 g for 45 mins at 4° C. The membrane was re-suspended in 3 mL of storage buffer (20 mM HEPES, 0.1 mM EDTA, pH 7.4) mixing well. The resulting membranes were then stored at −80°. GPR35 cell membrane homogenates were re-suspended in the binding buffer (50 mM TRIS+10 mM MgCl2 pH 7.4) to a final assay concentration of 5 ug/well. Test compounds were diluted in dimethylsulphoxide (DMSO (Sigma Aldrich, UK)), to form a 10 point ½ log concentration curve. Test compounds were added per plate, followed by 7 nM 3H-27966. 0.1 uM FAC Lodoxamide was added in order to allow non-specific binding to be calculated. Finally, membrane was added to each well on the plate. After 60 min incubation at room temperature, membranes were filtered onto a unifilter, 96-well white microplate with bonded GF/B filter, pre-soaked in ddH20, with a TomTec cell harvester, and washed 5 times with distilled water. Plates were dried prior to 50 ul/well scintillant added, sealed and radioactivity measured using a MicroBeta analyser. IC50 values were derived from the inhibition curve and affinity constant (Ki) values were calculated using the Cheng-Prussoff equation, where; pKi=−log 10 Ki.
as §1

Sequence of Human GPR35a isoform (Q9HC97 whole entry, canonical isoform): as the sequence (Q9HC97 whole entry) above

As for `O=c1c(O)c(Nc2cccc(-c3nn[nH]n3)c2)c1=O` [Example 1, 3-((3-(1H-tetrazol-5-yl)phenyl)amino)-4-hydroxycyclobut-3-ene-1,2-dione], the response in experiment [1] was half-maximal at 8.68 nM (EC50).
For the molecule `O=c1c(O)c(Nc2cc(-c3nn[nH]n3)cc(C(F)(F)F)c2)c1=O` [Example 2, 3-((3-(1H-tetrazol-5-yl)-5-(trifluoromethyl)phenyl)amino)-4-hydroxycyclobut-3-ene-1,2-dione], the Ki (usually the equilibrium dissociation constant of an inhibitor or competing ligand from its target) in experiment [2] was determined as 0.48 nM. The EC50 – broadly, the midpoint of the concentration-response curve – in experiment [1] came out at 0.9 nM.
In the case of `O=c1c(O)c(Nc2cc(-c3ccccc3)cc(-c3nn[nH]n3)c2)c1=O` [Example 3, 3-((5-(1H-tetrazol-5-yl)-[1,1′-biphenyl]-3-yl)amino)-4-hydroxycyclobut-3-ene-1,2-dione], the EC50 in experiment [1] is 2.27 nM.
As for `CCOC(=O)c1cccc(-c2cc(Nc3c(O)c(=O)c3=O)cc(-c3nn[nH]n3)c2)c1` [Example 4, ethyl 3′-((2-hydroxy-3,4-dioxocyclobut-1-en-1-yl)amino)-5′-(1H-tetrazol-5-yl)-[1,1′-biphenyl]-3-carboxylate], in experiment [2], the Ki was determined as 3.83 nM. In addition, the EC50 in experiment [1] worked out at 2.5 nM.
Taken in the same sequence, the figures for `O=C(NCc1ccccc1)c1cccc(-c2cc(Nc3c(O)c(=O)c3=O)cc(-c3nn[nH]n3)c2)c1` [Example 6, N-benzyl-3′-((2-hydroxy-3,4-dioxocyclobut-1-en-1-yl)amino)-5′-(1H-tetrazol-5-yl)-[1,1′-biphenyl]-3-carboxamide] were 1.82 nM and 0.62 nM.
Turning to `COCCNC(=O)c1ccc(-c2cc(Nc3c(O)c(=O)c3=O)cc(-c3nn[nH]n3)c2)cc1` [Example 7, 3′-((2-hydroxy-3,4-dioxocyclobut-1-en-1-yl)amino)-N-(2-methoxyethyl)-5′-(1H-tetrazol-5-yl)-[1,1′-biphenyl]-4-carboxamide], the Ki in experiment [2] is 2.77 nM. Further, it took 4.2 nM to reach a half-maximal effect in experiment [1] (EC50).
For `COCCOc1ccc(CNC(=O)c2ccc(-c3cc(Nc4c(O)c(=O)c4=O)cc(-c4nn[nH]n4)c3)cc2)cc1` [Example 8, 3′-((2-hydroxy-3,4-dioxocyclobut-1-en-1-yl)amino)-N-(4-(2-methoxyethoxy)benzyl)-5′-(1H-tetrazol-5-yl)-[1,1′-biphenyl]-4-carboxamide], in that order: 1.47 nM and 0.66 nM.
With `COc1cccc(-c2cc(Nc3c(O)c(=O)c3=O)cc(-c3nn[nH]n3)c2)c1` [Example 9, 3-hydroxy-4-((3′-methoxy-5-(1H-tetrazol-5-yl)-[1,1′-biphenyl]-3-yl)amino)cyclobut-3-ene-1,2-dione], in experiment [2], the Ki stood at 0.46 nM. In experiment [1], this molecule registered an EC50 of 0.83 nM.
For `CCc1cc(Nc2c(O)c(=O)c2=O)cc(-c2nn[nH]n2)c1` [Example 10, 3-((3-ethyl-5-(1H-tetrazol-5-yl)phenyl)amino)-4-hydroxycyclobut-3-ene-1,2-dione], the Ki in experiment [2] was found to be 2.75 nM. For the same molecule, in experiment [1], the EC50 amounted to 2.34 nM.
As to `O=C(O)c1cccc(-c2cc(Nc3c(O)c(=O)c3=O)cc(-c3nn[nH]n3)c2)c1` [Example 11, 3′-((2-hydroxy-3,4-dioxocyclobut-1-en-1-yl)amino)-5′-(1H-tetrazol-5-yl)-[1,1′-biphenyl]-3-carboxylic acid], the Ki in experiment [2] was 6.24 nM. Moreover, a half-maximal response in experiment [1] (EC50) required 4.31 nM.
Taken in the same sequence, the figures for `O=C(NCc1ccc(C(F)(F)F)cc1)c1ccc(-c2cc(Nc3c(O)c(=O)c3=O)cc(-c3nn[nH]n3)c2)cc1` [Example 12, 3′-((2-hydroxy-3,4-dioxocyclobut-1-en-1-yl)amino)-5′-(1H-tetrazol-5-yl)-N-(4-(trifluoromethyl)benzyl)-[1,1′-biphenyl]-4-carboxamide] were 0.31 nM and 0.03 nM.
Taken in the same sequence, the figures for `O=c1c(O)c(Nc2ccc(F)c(-c3nn[nH]n3)c2)c1=O` [Example 13, 3-((4-fluoro-3-(1H-tetrazol-5-yl)phenyl)amino)-4-hydroxycyclobut-3-ene-1,2-dione] were 0.99 nM and 2.39 nM.
On to `O=c1c(O)c(Nc2ccc(Cl)c(-c3nn[nH]n3)c2)c1=O` [Example 14, 3-((4-chloro-3-(1H-tetrazol-5-yl)phenyl)amino)-4-hydroxycyclobut-3-ene-1,2-dione], for which the Ki in experiment [2] is 0.6 nM. Further, the response in experiment [1] was half-maximal at 4.9 nM (EC50).
In the case of `O=c1c(O)c(Nc2cc(-c3ccc(C(F)(F)F)cc3)cc(-c3nn[nH]n3)c2)c1=O` [Example 15, 3-((5-(1H-tetrazol-5-yl)-4′-(trifluoromethyl)-[1,1′-biphenyl]-3-yl)amino)-4-hydroxycyclobut-3-ene-1,2-dione], in experiment [2], the Ki turned out to be 0.16 nM. The same molecule returned an EC50 in experiment [1] of 2.02 nM.
For `O=c1c(O)c(Nc2cc(-c3ccc(OCc4ccccc4)nc3)cc(-c3nn[nH]n3)c2)c1=O` [Example 16, 3-((3-(6-(benzyloxy)pyridin-3-yl)-5-(1H-tetrazol-5-yl)phenyl)amino)-4-hydroxycyclobut-3-ene-1,2-dione], in that order: 0.06 nM and 0.27 nM.
Taken in the same sequence, the figures for `COc1cc(-c2nn[nH]n2)cc(Nc2c(O)c(=O)c2=O)n1` [Example 17, 3-hydroxy-4-((6-methoxy-4-(1H-tetrazol-5-yl)pyridin-2-yl)amino)cyclobut-3-ene-1,2-dione] were 7.85 nM and 9.25 nM.
As to `O=c1c(O)c(Nc2cc(-c3nn[nH]n3)cc(-c3ccccc3)n2)c1=O` [Example 18, 3-hydroxy-4-((6-phenyl-4-(1H-tetrazol-5-yl)pyridin-2-yl)amino)cyclobut-3-ene-1,2-dione], the Ki in experiment [2] turned out to be 2.65 nM. Further, in experiment [1], the response was half-maximal at 5.18 nM (EC50).
As to `O=c1c(O)c(Nc2cc(-c3ccc4nn(Cc5ccc(C(F)(F)F)cc5)cc4c3)cc(-c3nn[nH]n3)c2)c1=O` [Example 19, 3-((3-(1H-tetrazol-5-yl)-5-(2-(4-(trifluoromethyl)benzyl)-2H-indazol-5-yl)phenyl)amino)-4-hydroxycyclobut-3-ene-1,2-dione], the Ki in experiment [2] was 0.36 nM. For the same molecule, the EC50 in experiment [1] was 0.08 nM.
For `O=c1c(O)c(Nc2cc(-c3ccc(OCc4ccc(C(F)(F)F)cc4)nc3)cc(-c3nn[nH]n3)c2)c1=O` [Example 20, 3-((3-(1H-tetrazol-5-yl)-5-(6-((4-(trifluoromethyl)benzyl)oxy)pyridin-3-yl)phenyl)amino)-4-hydroxycyclobut-3-ene-1,2-dione], in that order: 1.06 nM and 7.68 nM.
Consider `O=c1c(O)c(Nc2cc(-c3nn[nH]n3)cc(Oc3ccccc3)n2)c1=O` [Example 22, 3-hydroxy-4-((6-phenoxy-4-(1H-tetrazol-5-yl)pyridin-2-yl)amino)cyclobut-3-ene-1,2-dione], for which, in experiment [2], the Ki worked out at 3.66 nM. In addition, in experiment [1], the EC50 amounted to 1.39 nM.
For `O=c1c(O)c(Nc2cc(-c3ccc4cn(CCOc5ccc(C(F)(F)F)cc5)nc4c3)cc(-c3nnn[nH]3)c2)c1=O` [Example 23, 3-((3-(1H-tetrazol-5-yl)-5-(2-(2-(4-(trifluoromethyl)phenoxy)ethyl)-2H-indazol-6-yl)phenyl)amino)-4-hydroxycyclobut-3-ene-1,2-dione], in experiment [2], the Ki was 0.46 nM. In experiment [1], this molecule gave an EC50 of 0.12 nM.
Taken in the same sequence, the figures for `O=c1c(O)c(Nc2cc(-c3nn[nH]n3)cc(C3CC3)c2)c1=O` [Example 24, 3-((3-cyclopropyl-5-(1H-tetrazol-5-yl)phenyl)amino)-4-hydroxycyclobut-3-ene-1,2-dione] were 15.2 nM and 8.19 nM.
Taken in the same sequence, the figures for `O=c1c(O)c(Nc2cc(-c3ccc4[nH]ncc4c3)cc(-c3nn[nH]n3)c2)c1=O` [Example 25, 3-((3-(1H-indazol-5-yl)-5-(1H-tetrazol-5-yl)phenyl)amino)-4-hydroxycyclobut-3-ene-1,2-dione] were 0.37 nM and 0.44 nM.
